Measured values: ChEMBL document CHEMBL1149377, “8-(1-Naphthalen-2-yl-vinyl)-6,7,10-trioxaspiro (4.5) decane, a new 1,2,4-trioxane effective against rodent and simian malaria” (2006)

Experiments:
Plasmodium yoelii [1] = test: Antimalarial activity in Plasmodium yoelii MDR infected Swiss mice (Mus musculus) at 96 mg/kg Intramuscular dose; assay type: functional; details: im
Plasmodium yoelii [2] = test: Antimalarial activity against Plasmodium yoelii infected Swiss mice (Mus musculus) at 48 mg/kg Intramuscular dose; assay type: functional; details: im
Plasmodium yoelii [3] = test: Antimalarial activity against Plasmodium yoelii in Swiss mice (Mus musculus) model at 96 mg/kg peroral dose; assay type: functional; details: route oral
Plasmodium yoelii [4] = test: Antimalarial activity against Plasmodium yoelii infected Swiss mice (Mus musculus) at 48 mg/kg peroral dose; assay type: functional; details: route oral
Plasmodium yoelii [5] = test: Antimalarial activity against Plasmodium yoelii infected Swiss mice (Mus musculus) at 24 mg/kg intramuscular dose; assay type: functional; details: im
Plasmodium yoelii [6] = test: Antimalarial activity against Plasmodium yoelii infected Swiss mice (Mus musculus) at 192 mg/kg peroral dose; assay type: functional; details: route oral
Plasmodium yoelii [7] = test: Antimalarial activity against Plasmodium yoelii infected Swiss mice (Mus musculus) at 72 mg/kg Intramuscular dose; assay type: functional; details: im
Plasmodium cynomolgi = test: Elimination of parasitaemia in Plasmodium cynomolgi infected Rhesus monkeys (Macaca mulatta) at 20 mg/kg intramuscular or 40 mg/kg peroral dose; assay type: functional, organism-based

Row | SMILES | inhibition in vivo at 96 mg/kg (Plasmodium yoelii [1]) [%] | inhibition in vivo at 96 mg/kg (Plasmodium yoelii [3]) [%] | also measured
1 | C=C(c1ccc2ccccc2c1)C1COC2(CCCCC2)OO1 (configuration not stated) | 97 | – | inhibition in vivo at 48 mg/kg (Plasmodium yoelii [2]): 60%
2 | C=C(c1cccc2ccccc12)C1COC2(CCCC2)OO1 (configuration not stated) | 91 | 78 | –
3 | C=C(c1cccc2ccccc12)C1COC2(CCCCC2)OO1 (configuration not stated) | 87 | 83 | –
4 | C=C(c1ccc2c(c1)Cc1ccccc1-2)C1COC2(CCCC2)OO1 (configuration not stated) | 100 | 100 | –
5 | C=C(c1ccc2ccc3ccccc3c2c1)C1COC2(CCCCC2)OO1 (configuration not stated) | 13 | 99 | –
6 | CCN(CC)CCCC(C)Nc1ccnc2cc(Cl)ccc12 (configuration not stated) [CHLOROQUINE] | – | 100 | inhibition in vivo at 48 mg/kg (Plasmodium yoelii [4]): 100%
7 | C=C(c1ccc2c(ccc3ccccc32)c1)C1COC2(CCCC2)OO1 (configuration not stated) | 100 | 100 | –
8 | C[C@@H]1CC[C@H]2[C@@H](C)C(=O)O[C@@H]3O[C@@]4(C)CC[C@@H]1[C@]32OO4 [ARTEMISININ] | – | – | inhibition in vivo at 24 mg/kg (Plasmodium yoelii [5]): 100%; inhibition in vivo at 48 mg/kg (Plasmodium yoelii [2]): 100%
9 | C=C(c1ccc2c(ccc3ccccc32)c1)C1COC2(CCCCC2)OO1 (configuration not stated) | 81 | 100 | –
10 | C=C(c1ccc2c(c1)Cc1ccccc1-2)C1COC2(CCCCC2)OO1 (configuration not stated) | 83 | 100 | –
11 | C=C(c1ccc2ccccc2c1)C1COC2(CCCC2)OO1 (configuration not stated) | 100 | 90 | inhibition in vivo at 192 mg/kg (Plasmodium yoelii [6]): 100%; inhibition in vivo at 72 mg/kg (Plasmodium yoelii [7]): 96%; inhibition in vivo at 48 mg/kg (Plasmodium yoelii [2]): 97%; clearance (Plasmodium cynomolgi): 100%
12 | C=C(c1ccc2ccc3ccccc3c2c1)C1COC2(CCCC2)OO1 (configuration not stated) | 99 | 64 | –
13 | C=C(c1ccc(F)cc1)C1COC2(CCCCC2)OO1 (configuration not stated) | 89 | 14 | –
14 | C=C(c1ccccc1)C1COC2(CCCC2)OO1 (configuration not stated) | 100 | 15 | –
